These results are taken from patent publication US11292791B2 (priority 2017, dated 2022).

This test addresses BRD4 (Homo sapiens (Human), UniProt O60885). The following applies: read-out: BRD4 IC50 (μM gmean).
With `COC(=O)N1c2ccc3c(nc(CC(C(=O)O)c4ccc(F)cc4)n3C3CCCOC3)c2CC[C@@H]1C` (stereo partly shown) [Example 773], the IC50 (as a rule, the concentration that gives 50% inhibition) is 1 to 1000 µM.

Consider `COC(=O)N1c2ccc3c(nc(Cc4cncc(OC(C)C)c4)n3[C@@H]3CCC[C@@H](C(=O)O)C3)c2CC[C@@H]1C` [Example 775], for which the IC50 lay within 1 to 1000 µM.

On to `COC(=O)N1c2ccc3c(nc(Cc4ccc(C(F)(F)F)nn4)n3[C@@H]3CCC[C@@H](C(=O)O)C3)c2CC[C@@H]1C` [Example 777], for which the IC50 was in the range of 1 to 1000 µM.

`COC(=O)N1c2ccc3c(nc(Cc4ccccc4C(=O)O)n3C3CCOCC3)c2CC[C@@H]1C` [Example 778]: the 50% inhibitory concentration (IC50) lay within 1 to 1000 µM.

In the case of `COC(=O)N1c2ccc3c(nc([C@@H](c4ccccc4)S(C)(=O)=O)n3[C@H]3CC[C@H](C(=O)O)CC3)c2CC[C@@H]1C` [Example 779], the IC50 was 1 to 1000 µM.

As for `COC(=O)N1c2ccc3c(nc(Cc4cccc(OC(C)C)n4)n3[C@H]3CC[C@H](C(=O)O)CC3)c2CC[C@@H]1C` [Example 780], the IC50 was 1 to 1000 µM.

Take `COC(=O)N1c2ccc3c(nc(C(C)Cn4ccc(C)n4)n3C3CCCC(C(=O)O)C3)c2CC[C@@H]1C` (stereo partly shown) [Example 782]: the IC50 was 1 to 1000 µM.

Regarding `COC(=O)N1c2ccc3c(nc(CC(C(=O)O)c4ccc(C)c(F)c4)n3C3CCCOC3)c2CC[C@@H]1C` (stereo partly shown) [Example 783], the IC50 fell in the range of 1 to 1000 µM.

`COC(=O)N1c2ccc3c(nc(CCC4CCOCC4)n3[C@H]3CC[C@H](C(=O)O)CC3)c2CC[C@@H]1C` [Example 784]: the IC50 is 1 to 1000 µM.

For the compound `COC(=O)N1c2ccc3c(nc(CC(C(=O)O)c4ccc(C(F)F)cc4)n3C3COCC(F)(F)C3)c2CC[C@@H]1C` (stereo partly shown) [Example 785], the IC50 lay in the range of 1 to 1000 µM.

`COC(=O)N1c2ccc3c(nc(CC(C(=O)O)c4ccccc4)n3-c3cccc(OC)c3)c2CC[C@@H]1C` (stereo partly shown) [Example 786]: the IC50 lay within 1 to 1000 µM.

Take `COC(=O)N1c2ccc3c(nc(N(C)c4ccccc4)n3[C@@H]3CCC[C@@H](C(=O)O)C3)c2CC[C@@H]1C` [Example 787]: the IC50 is 1 to 1000 µM.

With `COC(=O)N1c2ccc3c(nc(CN4C(=O)CCc5ccccc54)n3[C@@H]3CCC[C@@H](C(=O)O)C3)c2CC[C@@H]1C` [Example 789], the IC50 was in the range of 1 to 1000 µM.

Regarding `COC(=O)N1c2ccc3c(nc(CC(C(=O)O)c4ccccc4)n3C3CCCC(OC)C3)c2CC[C@@H]1C` (stereo partly shown) [Example 791], the IC50 was 1 to 1000 µM.

As for `COC(=O)N1c2ccc3c(nc(OCc4ccccc4)n3[C@H]3CC[C@H](C(=O)O)CC3)c2CC[C@@H]1C` [Example 792], the IC50 lay within 1 to 1000 µM.

`COC(=O)N1c2ccc3c(nc(Cc4cnc5cc[nH]c5n4)n3[C@@H]3CCC[C@@H](C(=O)O)C3)c2CC[C@@H]1C` [Example 795]: the IC50 is 1 to 1000 µM.

As to `COC(=O)N1c2ccc3c(nc(CC(=O)N4CCCC4)n3[C@@H]3CCC[C@@H](C(=O)O)C3)c2CC[C@@H]1C` [Example 798], the IC50 fell in the range of 1 to 1000 µM.

Take `COC(=O)N1c2ccc3c(nc(Nc4cccc(F)c4)n3[C@@H]3CCC[C@@H](C(=O)O)C3)c2CC[C@@H]1C` [Example 802]: the IC50 was 1 to 1000 µM.

For the compound `COC(=O)N1c2ccc3c(nc(C(C)Cc4ccccc4)n3C3CCNCC3)c2CC[C@@H]1C` (stereo partly shown) [Example 803], the IC50 is 1 to 1000 µM.

In the case of `COC(=O)N1c2ccc3c(nc(CC[C@H]4CCOC4)n3[C@@H]3CCC[C@@H](C(=O)O)C3)c2CC[C@@H]1C` [Example 804], the IC50 lay in the range of 1 to 1000 µM.

Turning to `COC(=O)N1c2ccc3c(nc(N(C)c4ccc(F)cc4)n3[C@H]3CC[C@H](C(=O)O)CC3)c2CC[C@@H]1C` [Example 805], the IC50 was in the range of 1 to 1000 µM.

In the case of `COC(=O)N1c2ccc3c(nc(CC4CCCOC4)n3C3CCCC(C(=O)O)C3)c2CC[C@@H]1C` (stereo partly shown) [Example 806], the IC50 lay within 1 to 1000 µM.

As for `COC(=O)N1c2ccc3c(nc(OCCc4ccccc4)n3[C@H]3CC[C@H](C(=O)O)CC3)c2CC[C@@H]1C` [Example 807], the half-inhibitory concentration (IC50) lay within 1 to 1000 µM.

As to `COC(=O)N1c2ccc3c(nc(OCCn4cc(Cl)cn4)n3[C@@H]3CCC[C@@H](C(=O)O)C3)c2CC[C@@H]1C` [Example 810], the IC50 lay in the range of 1 to 1000 µM.

Turning to `COC(=O)N1c2ccc3c(nc(C(CO)c4ccccc4)n3C3CCC(C(=O)O)CC3)c2CC[C@@H]1C` (stereo partly shown) [Example 812], the IC50 was in the range of 1 to 1000 µM.

On to `COC(=O)N1c2ccc3c(nc(S(=O)(=O)c4ccccc4)n3[C@@H]3CCC[C@@H](C(=O)O)C3)c2CC[C@@H]1C` [Example 813], for which the IC50 lay within 1 to 1000 µM.

For the compound `COC(=O)N1c2ccc3c(nc(S(=O)(=O)Cc4ccccc4)n3[C@@H]3CCC[C@@H](C(=O)O)C3)c2CC[C@@H]1C` [Example 814], the IC50 lay in the range of 1 to 1000 µM.

As for `COC(=O)N1c2ccc3c(nc(Cc4nccc(C)n4)n3[C@@H]3CCC[C@@H](C(=O)O)C3)c2CC[C@@H]1C` [Example 820], the IC50 is 1 to 1000 µM.

Regarding `C/C=C(/Oc1ccccc1)c1nc2c3c(ccc2n1[C@H]1CC[C@H](C(=O)O)CC1)N(C(=O)OC)[C@@H](C)CC3` [Example 821], the IC50 fell in the range of 1 to 1000 µM.

Consider `COC(=O)N1c2ccc3c(nc(C4(Oc5cnccn5)CC4)n3[C@H]3CC[C@H](C(=O)O)CC3)c2CC[C@@H]1C` [Example 823], for which the IC50 fell in the range of 1 to 1000 µM.

On to `COC(=O)N1c2ccc3c(nc(C(C)Cn4ccc(C)n4)n3C3CCC(C(=O)O)CC3)c2CC[C@@H]1C` (stereo partly shown) [Example 824], for which the IC50 was 1 to 1000 µM.

Turning to `COC(=O)N1c2ccc3c(nc(C(C)Cn4ccc(Cl)n4)n3C3CCCC(C(=O)O)C3)c2CC[C@@H]1C` (stereo partly shown) [Example 827], the IC50 was in the range of 1 to 1000 µM.

On to `COC(=O)N1c2ccc3c(nc(Cc4ncc(Cl)cn4)n3[C@@H]3CCC[C@@H](C(=O)O)C3)c2CC[C@@H]1C` [Example 828], for which the IC50 lay within 1 to 1000 µM.

With `COC(=O)N1c2ccc3c(nc(CC(C(=O)O)c4ccc(C)cc4)n3C3CCCOC3)c2CC[C@@H]1C` (stereo partly shown) [Example 829], the IC50 lay within 1 to 1000 µM.

Take `COC(=O)N1c2ccc3c(nc(Nc4ccc(Cl)cc4)n3[C@@H]3CCC[C@@H](C(=O)O)C3)c2CC[C@@H]1C` [Example 831]: the IC50 was in the range of 1 to 1000 µM.

As for `COC(=O)N1c2ccc3c(nc(C(C)Oc4cnccn4)n3C3CCC(C(=O)O)CC3)c2CC[C@@H]1C` (stereo partly shown) [Example 833], the IC50 lay within 1 to 1000 µM.

As for `COC(=O)N1c2ccc3c(nc(C(C)Cn4cc(C)cn4)n3C3CCS(=O)(=O)C3)c2CC[C@@H]1C` (stereo partly shown) [Example 834], the IC50 is 1 to 1000 µM.

Take `COC(=O)[C@@H]1CCC[C@@H](n2c(Cc3ccccc3)nc3c4c(ccc32)N(C(=O)OC)[C@@H](C)CC4)C1` [Example 840]: the IC50 lay in the range of 1 to 1000 µM.

Regarding `COC(=O)N1c2ccc3c(nc(Nc4ccccc4)n3[C@H]3CC[C@H](C(=O)O)CC3)c2CC[C@@H]1C` [Example 843], the IC50 lay in the range of 1 to 1000 µM.

Consider `COC(=O)N1c2ccc3c(nc(C(C)Cn4cc(C)cn4)n3C3CCS(=O)(=O)C3)c2CC[C@@H]1C` (stereo partly shown) [Example 844], for which the IC50 is 1 to 1000 µM.

For the compound `COC(=O)N1c2ccc3c(nc(CC(C(=O)O)c4ccc(C)c(F)c4)n3C3CCCOC3)c2CC[C@@H]1C` (stereo partly shown) [Example 845], the IC50 lay within 1 to 1000 µM.

`COC(=O)N1c2ccc3c(nc(Nc4ccc(OC)cc4F)n3[C@@H]3CCC[C@@H](C(=O)O)C3)c2CC[C@@H]1C` [Example 846]: the IC50 is 1 to 1000 µM.

With `COC(=O)N1c2ccc3c(nc(CC(C(=O)O)c4ccccc4)n3-c3ccc(OC)cc3)c2CC[C@@H]1C` (stereo partly shown) [Example 849], the IC50 was in the range of 1 to 1000 µM.

As to `COC(=O)N1c2ccc3c(nc(Nc4ccc(OC)cc4F)n3[C@H]3CC[C@H](C(=O)O)CC3)c2CC[C@@H]1C` [Example 851], the IC50 was 1 to 1000 µM.

Regarding `COC(=O)N1c2ccc3c(nc(CC(C(=O)O)c4cccc5ccccc45)n3C3CCCOC3)c2CC[C@@H]1C` (stereo partly shown) [Example 852], the IC50 was 1 to 1000 µM.

Take `COC(=O)N1c2ccc3c(nc(C4(c5cnccn5)CC4)n3[C@@H]3CCC[C@@H](C(=O)O)C3)c2CC[C@@H]1C` [Example 856]: the IC50 lay in the range of 1 to 1000 µM.

With `COC(=O)N1c2ccc3c(nc(Cc4ccc(N5CCCC5=O)cc4)n3[C@@H]3CCC[C@@H](C(=O)O)C3)c2CC[C@@H]1C` [Example 858], the IC50 is 1 to 1000 µM.

On to `COC(=O)N1c2ccc3c(nc(C(C)Cn4cccn4)n3C3CCCS(=O)(=O)C3)c2CC[C@@H]1C` (stereo partly shown) [Example 860], for which the half-maximal inhibitory concentration (IC50) was in the range of 1 to 1000 µM.

With `COC(=O)N1c2ccc3c(nc(C(C)Cn4cc(C(F)F)cn4)n3C3CCCC(C(=O)O)C3)c2CC[C@@H]1C` (stereo partly shown) [Example 862], the IC50 is 1 to 1000 µM.

On to `COC(=O)N1c2ccc3c(nc(CC4CCOCC4)n3[C@@H]3CCC[C@@H](C(=O)O)C3)c2CC[C@@H]1C` [Example 863], for which the IC50 fell in the range of 1 to 1000 µM.

For the compound `COC(=O)N1c2ccc3c(nc(C(C)Cc4cnn(C)c4)n3C3CCCC(C(=O)O)C3)c2CC[C@@H]1C` (stereo partly shown) [Example 867], the IC50 fell in the range of 1 to 1000 µM.

Turning to `COC(=O)N1c2ccc3c(nc(CC(C(=O)O)c4cccc(C(F)F)c4)n3C3CCCOC3)c2CC[C@@H]1C` (stereo partly shown) [Example 868], the IC50 lay in the range of 1 to 1000 µM.

As to `COC(=O)N1c2ccc3c(nc(CC(C(=O)O)c4ccc5ccccc5c4)n3C3CCCOC3)c2CC[C@@H]1C` (stereo partly shown) [Example 870], the IC50 lay in the range of 1 to 1000 µM.

As for `COC(=O)N1c2ccc3c(nc(CCn4ccccc4=O)n3[C@@H]3CCC[C@@H](C(=O)O)C3)c2CC[C@@H]1C` [Example 871], the IC50 fell in the range of 1 to 1000 µM.

Turning to `COC(=O)N1c2ccc3c(nc(CC(C(=O)O)c4ccc(C)cc4)n3C3CCCOC3)c2CC[C@@H]1C` (stereo partly shown) [Example 872], the IC50 lay in the range of 1 to 1000 µM.

In the case of `COC(=O)N1c2ccc3c(nc(Nc4ccc(F)cc4)n3[C@@H]3CCC[C@@H](C(=O)O)C3)c2CC[C@@H]1C` [Example 876], the IC50 was in the range of 1 to 1000 µM.

Regarding `COC(=O)N1c2ccc3c(nc(C(C)Cn4cccn4)n3C3CCCC(C(=O)O)C3)c2CC[C@@H]1C` (stereo partly shown) [Example 878], the IC50 is 1 to 1000 µM.

As for `COC(=O)N1c2ccc3c(nc(Nc4ccc(F)cc4)n3[C@H]3CC[C@H](C(=O)O)CC3)c2CC[C@@H]1C` [Example 880], the IC50 was in the range of 1 to 1000 µM.

On to `COC(=O)N1c2ccc3c(nc(S(=O)(=O)Cc4ccccc4)n3[C@H]3CC[C@H](C(=O)O)CC3)c2CC[C@@H]1C` [Example 882], for which the IC50 is 1 to 1000 µM.

With `COC(=O)N1c2ccc3c(nc(CC(C(=O)O)c4cccc(C)c4)n3C3CCCOC3)c2CC[C@@H]1C` (stereo partly shown) [Example 885], the IC50 was 1 to 1000 µM.

Turning to `COC(=O)N1c2ccc3c(nc(C(C)Oc4cnccn4)n3C3CCC(C(=O)O)CC3)c2CC[C@@H]1C` (stereo partly shown) [Example 887], the IC50 was in the range of 1 to 1000 µM.
